Molecular target: PD-L1 (Homo sapiens, UniProt Q9NZQ7)
Assay: bio-affinity ultrafiltration, UPLC-HRMS
Assay type: binding
Details: […] h incubation with compound; denatured PD-L1 as control

Sequence of PD-L1 (Q9NZQ7 19-290): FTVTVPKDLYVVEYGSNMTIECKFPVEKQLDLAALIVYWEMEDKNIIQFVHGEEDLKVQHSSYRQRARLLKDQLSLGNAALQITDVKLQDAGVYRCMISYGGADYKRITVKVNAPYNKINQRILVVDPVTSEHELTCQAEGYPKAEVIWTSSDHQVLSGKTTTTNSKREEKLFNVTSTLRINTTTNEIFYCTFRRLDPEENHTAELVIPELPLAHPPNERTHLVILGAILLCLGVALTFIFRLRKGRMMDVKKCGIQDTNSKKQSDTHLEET

For `NCCc1c[nH]c2ccccc12` [tryptamine], the “relative peak area enhancement” value was 40.98%.
